Read-outs that look alike come from different tables or passages of the source.
Legend:
human 5-HT2B receptor = biological target: T1, human 5-HT2B receptor (Homo sapiens, UniProt P41595); assay: 5-HT2B agonist activity assay, IP1 production (HTRF) in CHO cells; format: cell-based
T1 construct: host or cells: CHO
Method: Evaluation of the agonist activity of compounds (I), (Ia) and (Ib) at the human 5-HT2B receptor was performed by Eurofins/Cerep (France) measuring the compound effects on inositol monophosphate (IP1) production using the HTRF detection method. Briefly, the human 5-HT2B receptor was expressed in transfected CHO cells. The cells were suspended in a buffer containing 10 mM Hepes/NaOH (pH 7.4), 4.2 mM KCl, 146 mM NaCl, 1 mM CaCl2, 0.5 mM MgCl2, 5.5 mM glucose and 50 mM LiCl, then distributed in microplates at a density of 4100 cells/well and incubated for 30 minutes at 37° C. in the presence of buffer (basal control), test compound or reference agonist. For stimulated control measurement, separate assay wells contained 1 μM 5-HT. Following incubation, the cells were lysed and the fluorescence acceptor (fluorophen D2-labeled IP1) and fluorescence donor (anti-IP1 antibody labeled with europium cryptate) were added. After 60 minutes at room temperature, the fluorescence transfer was measured at lambda(Ex) 337 nm and lambda(Em) 620 and 665 nm using a microplate reader (Rubystar, BMG). The IP1 concentration was determined by dividing the signal measured at 665 nm by that measured at 620 nm (ratio). The results were expressed as a percent of the control response to 1 μM 5-HT. […]

[1] = PK experiments in Wistar rats, plasma compound (I) after oral dosing of prodrugs; format: in vivo, rat; conditions: FIG. 1, doses equal to 287 μg/kg of compound (I)
Method: Plasma was placed on water-ice following collection. Final storage at approximately −70° C.
Mobile phase B: Acetonitrile. […] Flow rate 0.5 mL/min.
The rats had unrestricted access to the diet.
Mobile phase B: Acetonitrile+0.2% formic acid. […] Flow rate 0.3 mL/min.
Dosing and blood sampling for compound (Ic): Han Wistar rats were supplied by Envigo, UK. […] The rats received a standard laboratory diet Teklad 2014C. The rats had unrestricted access to the diet.

[2] = Liu et al., Bioorganic Med. Chem. (2008); rats; cited from earlier work
[3] = pKa values / major species of ionization; format: physicochemical
rat hepatocytes = assay: Conversion of compound (Id) to compound (I) in rat hepatocytes; format: in vitro ADME; conditions: 1 μg/mL, 37° C., 0.25-60 minutes
Method: (§1) The cell concentration at incubation was 1×10^6 viable cells/mL. The incubations were performed in glass tubes at 37° C. with a total incubation volume of 3.5 mL and with duplicate incubations for each test item. The 3.5 mL of hepatocyte suspension was equilibrated for 10 minutes in a water bath set to 37° C. where after the incubations were initiated by adding 3.5 μL of a stock solution of the test item in DMSO (Dimethyl sulfoxide) and gently inverting the tubes. The final solvent concentration in the incubations was 0.1% DMSO. Samples of 600 μL were withdrawn from the incubations at the pre-determined time points of 0.25, 5, 15, 30 and 60 minutes after ensuring homogeneity of hepatocyte suspensions. The withdrawn volume was added to 1 mL Nunc cryo tubes on wet ice containing 60 μL of ice-cold ascorbic acid (100 mg/mL) and 30 μL of ice cold 100 mM saccharic acid 1,4-lactone in 0.5 M citric acid. The tubes were mixed and 35 μL of a solution of ice cold 20% formic acid was added. The tubes were mixed thoroughly and stored at −80° C. awaiting analysis.

human hepatocytes = assay: Conversion of compound (Id) to compound (I) in human hepatocytes; format: in vitro ADME; conditions: 1 μg/mL, 37° C., 0.25-60 minutes
Method: as §1

[4] = Conversion of (Id) to (I) in fresh rat blood; format: in vitro ADME; conditions: 1 μg/mL, 37° C., 0-60 minutes
Method: (§2) Conversion of (Id) in human blood (average of 3 donors) and rat blood (average of 45 donors) to (I) was shown in fresh blood at 37° C. spiked with 1 μg/mL of (Id). (I) was measured at 0, 5, 15, 30 and 60 minutes in isolated plasma. Analysis method and Instrumentation as described in Examples 9 and 10 below in the section “Instrumentation used for analysis of compound (l) from dosing of compounds (Ic) and (Id).”

[5] = Conversion of (Id) to (I) in fresh human blood; format: in vitro ADME; conditions: 1 μg/mL, 37° C., 0-60 minutes
Method: as §2

rat locomotor activity = assay: Rat locomotor activity (hyperactivity) assay, open field, with PK/PD; format: in vivo
Method: Mass spectrometer (UPCLC-MS/MS) Waters Acquity I-Class-Waters Xevo TQ-S. Analytical column Acquity HSS T3 C18 50×2.1 mm, 1.8 μm. Mobile phase A: 10 mM NH4—Formate 0.2% formic acid:Acetonitril (95:5). Mobile phase B: 10 mM NH4—Formate 0.2% formic acid:Acetonitril (5:95). Gradient run from 95/5% to 5/95% in 2.40 minutes. Flow rate 0.3 mL/min. MRM detection of test items and the added analytical standards.
Animals for the study were as described in Example 10. Additionally, rats were administered a single dose of apomorphine subcutaneously.
In total, 206 male CD rats (Charles River, Germany) weighing 200-250 grams (165-190 grams upon arrival) were used in the study. Animals were housed at a standard temperature (22±1° C.) and in a light-controlled environment (lights on from 7 am to […]) with ad libitum access to food and water. The experiment described below was performed in accordance with the standard operating procedures of Charles River Discovery Research Services Finland Ltd. and in accordance with the national Animal Experiment Board of Finland (Eläinkoelautakunta, ELLA) authority on animal testing.
The test device is a square Plexiglass-arena (measuring 40×40×40 cm), in which the movement paths of the rats are recorded by an activity monitor (Med. Associates Inc.). Before the test period is initiated, rats are habituated to their test cage for 60 minutes. Upon completion of habituation, animals were treated with either compound or vehicle and placed back into the open field apparatus. The main test parameter measured is ambulatory distance (recorded in 5-minute segments). Overall time of measurement after receiving initial treatment was 360 minutes. Total follow up period in the study was 420 min, including 60 min of habituation.

[6] = Oral dosing of compound (Id) in minipigs; format: in vivo, minipig
[7] = man, after oral dosing; cited from earlier work

T1 sequence (P41595 whole entry): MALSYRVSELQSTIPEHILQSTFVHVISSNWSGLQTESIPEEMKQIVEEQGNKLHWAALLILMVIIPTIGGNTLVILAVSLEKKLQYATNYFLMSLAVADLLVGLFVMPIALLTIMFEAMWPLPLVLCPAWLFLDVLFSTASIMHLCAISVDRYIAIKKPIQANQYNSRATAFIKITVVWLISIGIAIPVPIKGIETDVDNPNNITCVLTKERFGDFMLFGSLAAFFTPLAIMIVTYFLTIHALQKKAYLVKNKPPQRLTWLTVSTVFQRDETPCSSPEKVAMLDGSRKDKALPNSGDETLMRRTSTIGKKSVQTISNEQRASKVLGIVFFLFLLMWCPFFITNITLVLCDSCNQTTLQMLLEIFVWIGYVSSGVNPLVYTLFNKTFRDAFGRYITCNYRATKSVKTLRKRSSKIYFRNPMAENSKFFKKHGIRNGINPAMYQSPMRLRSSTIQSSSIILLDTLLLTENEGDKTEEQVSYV

CCCN1CCC[C@@H]2CC3=C(CCCC3=O)C[C@H]21 [(Ia)]
5-HT2B agonist effect at single concentration (human 5-HT2B receptor; @ 30 μM, percent of control response to 1 μM 5-HT): 58% @ 30 μM | Plasma profile of compound (I) after oral dosing, in words [1]: early and high peak concentrations

CCCN1CCC[C@@H]2Cc3c(ccc(OC(=O)C(C)(C)C)c3OC(=O)C(C)(C)C)C[C@H]21 [(Ic)]
5-HT2B agonist effect at single concentration (human 5-HT2B receptor; @ 10 μM): −5% @ 10 μM | Plasma profile of compound (I) after oral dosing, in words [1]: extremely low

CCCN1CCC[C@@H]2Cc3c(ccc(O)c3O)C[C@H]21 [Compound (I), (4aR,10aR)-1-Propyl-1,2,3,4,4a,5,10,10a-octahydro-benzo[g]quinoline-6,7-diol]
Oral bioavailability, in words [2]: low oral bioavailability

CCCN1CCC[C@@H]2Cc3c(ccc(O)c3O[C@@H]3O[C@H](C(=O)O)[C@@H](O)[C@H](O)[C@H]3O)C[C@H]21 [Compound (Id), (2S,3S,4S,5R,6S)-3,4,5-trihydroxy-6-(((4aR,10aR)-7-hydroxy-1-propyl-1,2,3,4,4a,5,10,10a-octahydrobenzo[g]quinolin-6-yl)oxy)tetrahydro-2H-pyran-2-carboxylic acid]
pKa ([3]; anion / dianion boundary pH, read-out: pKa (third), boundary between major species of ionization): 10.1 | pKa ([3]; cation / zwitterion boundary pH, read-out: pKa (first), boundary between major species of ionization): 2.8 | pKa ([3]; zwitterion / anion boundary pH, read-out: pKa (second), boundary between major species of ionization): 8.8 | Conversion to compound (I) (rat hepatocytes): time dependent conversion | Conversion to compound (I) (human hepatocytes): time dependent conversion | Conversion to compound (I) [4]: time dependent conversion | Conversion to compound (I) [5]: time dependent conversion | Plasma profile of compound (I) after oral dosing, in words [1]: slower absorption rate avoiding rapid peak concentrations accompanied by a sustained exposure | Relationship of behavioral effect and plasma concentration (rat locomotor activity; (Id) 100 μg/kg p.o. (FIG. 4), apomorphine 3 mg/kg s.c. (FIG. 5)): correlate with the plasma concentrations of compound (I) | Duration of locomotor effect, in words (rat locomotor activity; (Id) 10 to 300 μg/kg p.o., recording to the 415-minute time point): lasting until the end of recording | Total distance travelled, in words (rat locomotor activity; FIG. 3, (Id) 10, 30, 100 or 300 μg/kg p.o., apomorphine 3 mg/kg s.c., pramipexole 0.3 mg/kg s.c., vs vehicle): significantly increased activity | In vivo conversion to compound (I) [6]: In vivo conversion of compound (Id) to compound (I) has also been observed

CCCc1cc2c(s1)CN[C@@H]1CCc3cc(OC(C)=O)c(OC(C)=O)cc3[C@@H]21 [adrogolide]
Oral bioavailability [7]: ~4%
